Test results: ChEMBL document CHEMBL1152071, “Synthesis and neurobiological actions of pyrrolidine-2,3-dicarboxylic acids (PRDA). Conformationally restricted analogues of L-aspartate” (Bioorg Med Chem Lett, 1994)

Each molecule was assayed against Glutamate NMDA receptor (Rattus norvegicus) (UniProt P35439+Q00959+Q00960+Q00961+Q62645+Q8VHN2+Q9R1M7) (assay: Depolarizing activity relative to that of L-Glutamate (L-Glu=1) tested against NMDA type receptor in the newborn rat spinal motoneurone).
Assay type: protein-complex assay

Point of comparison: `O=C(O)[C@H]1NCCC[C@H]1C(=O)O`, Relative Potency Ratio 10. Against it:
- O=C(O)[C@H]1CCN[C@H]1C(=O)O — lower, 3
- CN[C@H](CC(=O)O)C(=O)O — higher, 50
- O=C(O)[C@H]1CCCN[C@@H]1C(=O)O (racemic) — higher, 20
- O=C(O)[C@H]1NCC[C@H]1C(=O)O — lower, 0.1

What follows are molecules tested against Glutamate receptors; NMDA/AMPA (Rattus norvegicus) (UniProt P35439+Q00959+Q00960+Q00961+Q62645+Q8VHN2+Q9R1M7+P19491+P19492+P19493+P19490) (assay: Depolarizing activity relative to that of L-Glutamate (L-Glu=1) tested against mixed type(NMDA & AMPA) receptor in the newborn rat spinal motoneurone).
Assay type: protein-complex assay

With `O=C(O)[C@@H]1CCN[C@H]1C(=O)O` the Relative Potency Ratio was 5.
